From US11191766B2, “Methods of treating pediatric cancers” (Loxo Oncology, Inc., priority 2016, dated 2021)
Counter-ions that a name gives are not always drawn.

Legend:
[1] = Accelerated stability study in an LDPE bag at 40° C./75% RH for five weeks; format: physicochemical
[2] = Hygroscopicity: dynamic vapor sorption (DVS) / exposure to humidity; format: physicochemical; conditions: for hygroscopicity: non-hygroscopic = less than a 2% weight gain at 25° C. and 80% RH after 24 to 48 hours
Procedure: For the DVS measurement a sample of crystalline form (I-HS) was cycled through changing humidity conditions to determine its hygroscopicity. The sample was analyzed using a Surface Measurement System DVS-1 Dynamic Vapor Sorption System. […] Data was collected in 1 minute intervals. Nitrogen was used as the carrier gas. […] After completion of the sorption cycle, the sample was dried using the same procedure, but all the way down to 0% RH and finally taken back to the starting point of 20% RH. The weight change during the sorption/desorption cycles were plotted, allowing for the hygroscopic nature of the sample to be determined.
The crystalline form (I-HS), as noted previously, is non-hygroscopic. […] Given this tendency, use of the AM(HS) compound would require significant handling precautions during storage and manufacture to prevent this change in form from occurring whereas the crystalline form (I-HS) requires no such precautions during manufacture of the API.

[3] = Flow properties (Carr's and Hausner Index); format: physicochemical
Text: The differences in flow properties can make the development of a solid oral dosage form more difficult for the amorphous API vs. the crystalline API.

[4] = system: Infantile Fibrosarcoma with NTRK3-ETV6 Fusion; assay: Phase 1 pediatric study of oral liquid formulation, case of infantile fibrosarcoma (MR imaging response); format: in vivo, human
[5] = first two cycles; fever and influenza A considered not related

Compound | chemical impurity levels over the course of the study [1] | change in crystalline form during DVS (XRPD post vs pre DVS) [2] | hysteresis between sorption and desorption cycles ([2]; DVS) | increase in mass during the sorption cycle ([2]; between 0% and 90% RH) | hygroscopicity [2] | flow properties compared with amorphous API [3] | response on repeat scans ([4]; end of Cycle 2, size reduction confirmed, continued decrease in enhancement) | interval reduction in the size and enhancement of the mass from baseline (MR of the brain and neck) ([4]; end of cycle 1 (day 28), BID, patient) | clinical observation noted by the parents ([4]; throughout cycle 1) | adverse events related to compound [5]
O=C(Nc1cnn2ccc(N3CCC[C@@H]3c3cc(F)ccc3F)nc12)N1CC[C@H](O)C1 [crystalline form (I-HS), (S)—N-(5-((R)-2-(2,5-difluorophenyl)pyrrolidin-1-yl)-pyrazolo[1,5-a]pyrimidin-3-yl)-3-hydroxypyrrolidine-1-carboxamide hydrogen sulfate] | neither the AM(HS) or crystalline form (I-HS) exhibited a significant changes in chemical impurity levels | no change | very small hysteresis | about 1.7% | non-hygroscopic | better flow properties |  |  |  | 
O=C(Nc1cnn2ccc(N3CCC[C@@H]3c3cc(F)ccc3F)nc12)N1CC[C@H](O)C1.O=S(=O)(O)O [AM(HS), (S)—N-(5-((R)-2-(2,5-difluorophenyl)pyrrolidin-1-yl)-pyrazolo[1,5-a]pyrimidin-3-yl)-3-hydroxypyrrolidine-1-carboxamide hydrogen sulfate] | neither the AM(HS) or crystalline form (I-HS) exhibited a significant changes in chemical impurity levels |  |  |  | deliquesce upon exposure to humidity |  |  |  |  | 
O=C(Nc1cnn2ccc(N3CCC[C@@H]3c3cc(F)ccc3F)nc12)N1CC[C@H](O)C1 [Compound I-HS, (S)—N-(5-((R)-2-(2,5-difluorophenyl)pyrrolidin-1-yl)-pyrazolo[1,5-a]pyrimidin-3-yl)-3-hydroxypyrrolidine-1-carboxamide hydrogen sulfate] |  |  |  |  |  |  | partial response | more than 90% | improved engagement and playfulness | no adverse events related to Compound I-HS
